Test results from paper PMC5775417 (Scientific Reports, 2018).
“And” between values parts separate entries of the source, which are not always exact repeats. Equal values may be shown once. “Also recorded” adds a separate entry of the source. Read-outs that look alike come from different tables or passages of the source. Blank lines part the entries; values can stand above or below the compound they belong to.

Tests used:
D80^2.50A c-myc-D2LR = target: T1, D80^2.50A c-myc-D2LR (Homo sapiens, UniProt P14416, D80A); assay: [3H]spiperone competition binding, membranes of Flp-In CHO cells; conditions: for Ki / logα (logarithm of the cooperativity factor between the modulator and [3H]spiperone) / α (cooperativity factor with [3H]spiperone) / Kb: D80A; for Ki: 100 µM GppNHp; for Kb: allosteric ternary complex model
T1 construct: expressed in transfected cells
T1 sequence (P14416 whole entry D80A): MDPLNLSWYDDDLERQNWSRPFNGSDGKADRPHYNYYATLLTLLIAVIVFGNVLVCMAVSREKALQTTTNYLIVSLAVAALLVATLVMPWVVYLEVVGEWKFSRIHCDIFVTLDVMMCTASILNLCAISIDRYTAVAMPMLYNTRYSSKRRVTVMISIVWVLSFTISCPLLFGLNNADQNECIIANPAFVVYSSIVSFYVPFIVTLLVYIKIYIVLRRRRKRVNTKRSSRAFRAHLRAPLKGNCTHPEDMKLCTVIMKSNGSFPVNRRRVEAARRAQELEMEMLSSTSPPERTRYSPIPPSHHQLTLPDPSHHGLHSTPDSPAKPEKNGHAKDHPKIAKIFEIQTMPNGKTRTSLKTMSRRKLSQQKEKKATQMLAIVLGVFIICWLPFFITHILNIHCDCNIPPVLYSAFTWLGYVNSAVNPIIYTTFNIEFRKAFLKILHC
Description: (§1) Flp-In CHO cells (Invitrogen) were transfected with the pOG44 vector encoding Flp recombinase and the pDEST vector encoding the wild-type or mutant c-Myc-D2LR at a ratio of 9:1 using polyethylenimine (Polysciences, Warrington, PA) as transfection reagent. 24 hours after transfection the cells were subcultured and the medium was supplemented with 700 μg/ml hygromycin B as selection agent to obtain cells stably expressing the c-Myc-D2LR. FlpIn CHO cells stably expressing the wild-type or mutant c-Myc-D2LR were grown in Dulbecco’s modified Eagle’s medium (DMEM) supplemented with 10% fetal bovine serum and 200 µg/mL of Hygromycin-B, and maintained at 37 °C in a humidified incubator containing 5% CO2. When cells were approximately 90% confluent, they were harvested and centrifuged (300 g, 3 min, 4 °C). The resulting pellet was resuspended in assay buffer either in the presence (20 mM HEPES, 100 mM NaCl, 6 mM MgCl2, 1 mM EGTA, and 1 mM EDTA, pH 7.4) or absence (20 mM HEPES, 100 mM NMDG, 6 mM MgCl2, 1 mM EGTA, and 1 mM EDTA, pH 7.4) of sodium ions. The centrifugation procedure was repeated. The intact cell pellet was then resuspended in assay buffer and homogenized using a Polytron homogenizer for three 10 s intervals on the maximum setting, with 30 s periods on ice between each burst. The homogenate volume was brought up to 30 mL, the sample was centrifuged (350 g, 5 min, 4 °C), the pellet was discarded, and the supernatant was centrifuged at 30 000 g for 1 hr at 4 °C. The resulting pellet was resuspended in 5 mL of assay buffer, and the protein content was determined using the bicinchoninic acid assay (BCA assay). The homogenate was then separated into 500 µl aliquots and stored at −80 °C until it was required for binding assays.
(§2) Binding was terminated by fast-flow filtration over GF/B membranes using a Brandel harvester followed by three washes with ice-cold 0.9% NaCl. Bound radioactivity was measured in a Tri-Carb 2900TR liquid scintillation counter (PerkinElmer).
(§3) Values of α > 1 denote positive cooperativity, values < 1 (but > 0) denote negative cooperativity and values = 1 denote neutral cooperativity.
(§4) IC50 values obtained from the inhibition curves were converted to Ki values using the Cheng and Prusoff equation[35].

E95^2.65A c-myc-D2LR = target: T2, E95^2.65A c-myc-D2LR (Homo sapiens, UniProt P14416, E95A); assay: as above; conditions: for fold decrease in affinity at E95A mutant in the absence of Na+ vs E95A in the presence of Na+: 100 mM NMDG vs 100 mM NaCl; for Ki / logα (logarithm of the cooperativity factor between the modulator and [3H]spiperone) / α (cooperativity factor with [3H]spiperone) / Kb: E95A; for Ki: 100 µM GppNHp; for Kb: allosteric ternary complex model
T2 construct: expressed in transfected cells
T2 sequence (P14416 whole entry E95A): as the sequence (P14416 whole entry D80A) above, with A80D, E95A counted along it
Description: as §1, §2, §3, §4

WT c-myc-D2LR = target: T3, WT c-myc-D2LR (Homo sapiens, UniProt P14416); assay: as above; conditions: for fold loss in affinity in the absence of Na+ vs presence of Na+: WT D2LR, 100 mM NMDG vs 100 mM NaCl; for Ki / Kb / logα (logarithm of the cooperativity factor between the modulator and [3H]spiperone) / α (cooperativity factor with [3H]spiperone): WT
T3 construct: expressed in transfected cells
T3 sequence (P14416 whole entry): as the sequence (P14416 whole entry D80A) above, with A80D counted along it
Description: as §1, §2, §3, §4

[1] = system: D2R Tyr^7.43 to cysteine mutant; conditions: cited from earlier work
[2] = 100 mM NaCl, 0.15 nM [3H]spiperone, read-out: Ki (converted)
[3] = 100 mM NaCl, 0.15 nM [3H]spiperone, read-out: pKi (converted)
[4] = 100 mM NMDG (no Na+), 0.15 nM [3H]spiperone, read-out: Ki (converted)
[5] = 100 mM NMDG (no Na+), 0.15 nM [3H]spiperone, 100 µM GppNHp, read-out: pKi (converted)
[6] = 100 mM NaCl, 0.15 nM [3H]spiperone, 100 µM GppNHp, read-out: pKi (converted)
[7] = 100 mM NaCl, 0.5 nM [3H]spiperone
[8] = 100 mM NMDG (no Na+), 0.5 nM [3H]spiperone
[9] = 100 mM NMDG (no Na+), 0.15 nM [3H]spiperone
[10] = 100 mM NaCl, 0.15 nM [3H]spiperone
[11] = 100 mM NMDG (no Na+), 0.15 nM [3H]spiperone, ND = no inhibition of [3H]spiperone binding detected

fold loss in affinity at D80A mutant vs WT (D80^2.50A c-myc-D2LR; 100 mM NaCl): 5 fold
Ki (D80^2.50A c-myc-D2LR; 100 mM NMDG (no Na+), 0.15 nM [3H]spiperone, read-out: pKi (converted)): 1.48 µM
Ki (D80^2.50A c-myc-D2LR; [2]): 1.5 µM
Ki (D80^2.50A c-myc-D2LR; [3]): 1.51 µM
fold by which the WT vs E95A difference in affinity is greater in the presence of Na+ than in the absence of Na+ (E95^2.65A c-myc-D2LR): 2 fold
fold decrease in affinity at E95A mutant in the absence of Na+ vs E95A in the presence of Na+ (E95^2.65A c-myc-D2LR): 5 fold
Ki (E95^2.65A c-myc-D2LR; [4]): 4.8 µM
Ki (E95^2.65A c-myc-D2LR; [2]): 1.2 µM
Ki (E95^2.65A c-myc-D2LR; [3]): 1.15 µM
fold loss in affinity at E95A mutant vs WT (E95^2.65A c-myc-D2LR; absence of Na+ (100 mM NMDG)): 3 fold
fold loss in affinity at E95A mutant vs WT (E95^2.65A c-myc-D2LR; presence of Na+ (100 mM NaCl)): 5 fold
fold loss in affinity in the absence of Na+ vs presence of Na+ (WT c-myc-D2LR): 6 fold
Ki (WT c-myc-D2LR; [5]): 1.74 µM
Ki (WT c-myc-D2LR; [6]): 0.275 µM
Ki (WT c-myc-D2LR; 100 mM NaCl, complete displacement of [3H]spiperone, read-out: Ki): 0.275 µM
SMILES: CC(=O)N[C@H]1CC[C@H](CCN2CCc3ccc(C#N)cc3C2)CC1 [MIPS1059, N-((trans)-4-(2-(7-cyano-3,4-dihydroisoquinolin-2(1H)yl)ethyl)cyclohexyl)acetamide]

SMILES: CCCN1CCc2ccc(C#N)cc2C1 [MIPS1071, 2-propyl-1,2,3,4-tetrahydroisoquinoline-7-carbonitrile]
fold loss in affinity at D80A mutant vs WT (D80^2.50A c-myc-D2LR; 100 mM NaCl): 7 fold
Ki (D80^2.50A c-myc-D2LR; [4]): 7.2 µM
Ki (D80^2.50A c-myc-D2LR; [2]): 9.3 µM
Ki (E95^2.65A c-myc-D2LR; [4]): 7.6 µM
Ki (E95^2.65A c-myc-D2LR; [3]): 1.26 µM
fold loss in affinity at E95A mutant vs WT (E95^2.65A c-myc-D2LR; absence of Na+ (100 mM NMDG)): not changed
fold loss in affinity at E95A mutant vs WT (E95^2.65A c-myc-D2LR; presence of Na+ (100 mM NaCl)): not changed
fold loss in affinity in the absence of Na+ vs presence of Na+ (WT c-myc-D2LR): 9 fold
Ki (WT c-myc-D2LR; [5]): 12 µM
Ki (WT c-myc-D2LR; [6]): 1.26 µM

fold loss in affinity at D80A mutant vs WT (D80^2.50A c-myc-D2LR; 100 mM NaCl): > 10 fold
logα (logarithm of the cooperativity factor between the modulator and [3H]spiperone) (D80^2.50A c-myc-D2LR; [7]): −2.13 ± 0.27
α (cooperativity factor with [3H]spiperone) (D80^2.50A c-myc-D2LR; [7]): 0.007
Kb (D80^2.50A c-myc-D2LR; [7]): 0.316 µM
fold by which the WT vs E95A difference in affinity is greater in the presence of Na+ than in the absence of Na+ (E95^2.65A c-myc-D2LR): 2 fold
fold decrease in affinity at E95A mutant in the absence of Na+ vs E95A in the presence of Na+ (E95^2.65A c-myc-D2LR): 7 fold
logα (logarithm of the cooperativity factor between the modulator and [3H]spiperone) (E95^2.65A c-myc-D2LR; [8]): −1.89 ± 0.31
α (cooperativity factor with [3H]spiperone) (E95^2.65A c-myc-D2LR; [8]): 0.01
Kb (E95^2.65A c-myc-D2LR; [8]): 0.812 µM
logα (logarithm of the cooperativity factor between the modulator and [3H]spiperone) (E95^2.65A c-myc-D2LR; [7]): −1.91 ± 0.12
α (cooperativity factor with [3H]spiperone) (E95^2.65A c-myc-D2LR; [7]): 0.01
Kb (E95^2.65A c-myc-D2LR; [7]): 0.123 µM
fold loss in affinity at E95A mutant vs WT (E95^2.65A c-myc-D2LR; absence of Na+ (100 mM NMDG)): 2 fold
fold loss in affinity at E95A mutant vs WT (E95^2.65A c-myc-D2LR; presence of Na+ (100 mM NaCl)): 4 fold
Kb (WT c-myc-D2LR; 0.15 nM [3H]spiperone, radioligand completely displaced, read-out: pKB (converted)): 0.00977 µM
logα (logarithm of the cooperativity factor between the modulator and [3H]spiperone) (WT c-myc-D2LR; [8]): −2.26 ± 0.39
α (cooperativity factor with [3H]spiperone) (WT c-myc-D2LR; [8]): 0.005
Kb (WT c-myc-D2LR; 100 mM NMDG (no Na+), allosteric ternary complex model, 0.5 nM [3H]spiperone, read-out: KB (converted)): 0.398 µM
logα (logarithm of the cooperativity factor between the modulator and [3H]spiperone) (WT c-myc-D2LR; [7]): −1.90 ± 0.08
α (cooperativity factor with [3H]spiperone) (WT c-myc-D2LR; [7]): 0.01
Kb (WT c-myc-D2LR; 100 mM NaCl, allosteric ternary complex model, 0.5 nM [3H]spiperone, read-out: KB (converted)): 0.03 µM and 0.0302 µM
SMILES: N#Cc1ccc2c(c1)CN(CC[C@H]1CC[C@H](NC(=O)c3cc4ccncc4[nH]3)CC1)CC2 [MIPS1726]

fold loss in affinity at D80A mutant vs WT (D80^2.50A c-myc-D2LR; 100 mM NaCl): 6 fold
logα (logarithm of the cooperativity factor between the modulator and [3H]spiperone) (D80^2.50A c-myc-D2LR; [9]): −0.87 ± 0.12
α (cooperativity factor with [3H]spiperone) (D80^2.50A c-myc-D2LR; [9]): 0.13
Kb (D80^2.50A c-myc-D2LR; [9]): 0.468 µM
α (cooperativity factor with [3H]spiperone) (D80^2.50A c-myc-D2LR; [10]): 0.23
logα (logarithm of the cooperativity factor between the modulator and [3H]spiperone) (D80^2.50A c-myc-D2LR; 100 mM NaCl, 0.15 nM [3H]spiperone, ND = no inhibition of [3H]spiperone binding detected): −0.62 ± 0.06
Kb (D80^2.50A c-myc-D2LR; [10]): 0.631 µM
fold loss of negative cooperativity at D80A mutant vs WT (D80^2.50A c-myc-D2LR; cooperativity with [3H]spiperone): 4 fold and 6 fold
fold by which the WT vs E95A difference in affinity is greater in the presence of Na+ than in the absence of Na+ (E95^2.65A c-myc-D2LR): 2 fold
fold decrease in affinity at E95A mutant in the absence of Na+ vs E95A in the presence of Na+ (E95^2.65A c-myc-D2LR): 3 fold
α (cooperativity factor with [3H]spiperone) (E95^2.65A c-myc-D2LR; [9]): 0.06
logα (logarithm of the cooperativity factor between the modulator and [3H]spiperone) (E95^2.65A c-myc-D2LR; [11]): −1.24 ± 0.16
Kb (E95^2.65A c-myc-D2LR; [9]): 0.617 µM
logα (logarithm of the cooperativity factor between the modulator and [3H]spiperone) (E95^2.65A c-myc-D2LR; [10]): −1.39 ± 0.11
α (cooperativity factor with [3H]spiperone) (E95^2.65A c-myc-D2LR; [10]): 0.04
Kb (E95^2.65A c-myc-D2LR; [10]): 0.212 µM
fold loss in affinity at E95A mutant vs WT (E95^2.65A c-myc-D2LR; presence of Na+ (100 mM NaCl)): 2 fold
fold loss in affinity in the absence of Na+ vs presence of Na+ (WT c-myc-D2LR): 6 fold and 5 fold
α (cooperativity factor with [3H]spiperone) (WT c-myc-D2LR; [9]): 0.03
logα (logarithm of the cooperativity factor between the modulator and [3H]spiperone) (WT c-myc-D2LR; [11]): −1.48 ± 0.12
Kb (WT c-myc-D2LR; 100 mM NMDG (no Na+), allosteric ternary complex model, 0.15 nM [3H]spiperone, read-out: KB (converted)): 0.631 µM
logα (logarithm of the cooperativity factor between the modulator and [3H]spiperone) (WT c-myc-D2LR; [10]): −1.45 ± 0.12
α (cooperativity factor with [3H]spiperone) (WT c-myc-D2LR; [10]): 0.04
Kb (WT c-myc-D2LR; 100 mM NaCl, allosteric ternary complex model, 0.15 nM [3H]spiperone, read-out: KB (converted)): 0.1 µM
SMILES: N#Cc1ccc2c(c1)CN(CC[C@H]1CC[C@H](NC(=O)c3cc4cccc(F)c4[nH]3)CC1)CC2 [MIPS1868]
fold loss in affinity at E95A mutant vs WT (E95^2.65A c-myc-D2LR; absence of Na+ (100 mM NMDG)): no significant difference; also recorded: no additional effect

SMILES: CN1CN(c2ccccc2)C2(CCN(CCCC(=O)c3ccc(F)cc3)CC2)C1=O [N-methyl-spiperone]
fold decrease in affinity upon mutation of Tyr^7.43 to cysteine [1]: 3 fold

SMILES: CCN1CCCC1CNC(=O)c1cc(S(N)(=O)=O)ccc1OC (stereo not shown) [sulpiride]
fold decrease in affinity upon mutation of Tyr^7.43 to cysteine [1]: 185 fold
